The test system of this assay is P388 leukemia ip, CD2F1 mice, survival T/C. The assay is described as follows: NCI In Vivo Anticancer Drug Screen. Data for tumor model P388 Leukemia (intraperitoneal) in CD2F1 (CDF1) mice. The settings on record: endpoint: median survival time, higher = longer survival. The procedure, abridged:
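Mice carrying the transplanted tumor received test compound or vehicle. Survival was recorded in each group, and the value is the treated-group measurement divided by that of the vehicle-treated control group.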

The mark [1] stands for this setting: dose: 60.0 mg/kg/injection, schedule: Q01DX005 (ip), vehicle: Klucel (hydroxypropylcellulose) (HPC).
Setting [2] is: dose: 120.0 mg/kg/injection, schedule: Q01DX005 (ip), vehicle: Klucel (hydroxypropylcellulose) (HPC).
Where [3] appears, read: dose: 240.0 mg/kg/injection, schedule: Q01DX005 (ip), vehicle: Klucel (hydroxypropylcellulose) (HPC).
Where [4] appears, read: dose: 25.0 mg/kg/injection, schedule: Q01DX009 (ip), vehicle: Klucel (hydroxypropylcellulose) (HPC).
[5] abbreviates: dose: 50.0 mg/kg/injection, schedule: Q01DX009 (ip), vehicle: Klucel (hydroxypropylcellulose) (HPC).
[6] abbreviates: dose: 100.0 mg/kg/injection, schedule: Q01DX009 (ip), vehicle: Klucel (hydroxypropylcellulose) (HPC).
The mark [7] stands for this setting: dose: 200.0 mg/kg/injection, schedule: Q01DX009 (ip), vehicle: Klucel (hydroxypropylcellulose) (HPC).
[8] abbreviates: dose: 50.0 mg/kg/injection, schedule: Q01DX005 (ip), vehicle: saline with Tween-80.
[9] abbreviates: dose: 100.0 mg/kg/injection, schedule: Q01DX005 (ip), vehicle: saline with Tween-80.
The mark [10] stands for this setting: dose: 200.0 mg/kg/injection, schedule: Q01DX005 (ip), vehicle: saline with Tween-80.
Setting [11] is: dose: 50.0 mg/kg/injection, schedule: Q01DX005 (ip), vehicle: Klucel (hydroxypropylcellulose) (HPC).
[12] abbreviates: dose: 100.0 mg/kg/injection, schedule: Q01DX005 (ip), vehicle: Klucel (hydroxypropylcellulose) (HPC).
The mark [13] stands for this setting: dose: 200.0 mg/kg/injection, schedule: Q01DX005 (ip), vehicle: Klucel (hydroxypropylcellulose) (HPC).
The mark [14] stands for this setting: dose: 50.0 mg/kg/injection, schedule: Q01DX009 (ip), vehicle: saline.
Where [15] appears, read: dose: 100.0 mg/kg/injection, schedule: Q01DX001 (ip), vehicle: other.
Setting [16] is: dose: 200.0 mg/kg/injection, schedule: Q01DX001 (ip), vehicle: other.
The mark [17] stands for this setting: dose: 400.0 mg/kg/injection, schedule: Q01DX001 (ip), vehicle: other.
The mark [18] stands for this setting: dose: 50.0 mg/kg/injection, schedule: Q01DX009 (ip), vehicle: saline with Tween-80.
The mark [19] stands for this setting: dose: 100.0 mg/kg/injection, schedule: Q01DX009 (ip), vehicle: saline with Tween-80.
The mark [20] stands for this setting: dose: 200.0 mg/kg/injection, schedule: Q01DX009 (ip), vehicle: saline with Tween-80.

Where “and” joins values, the source holds several entries; their conditions need not be identical. Equal entries are not always repeated. Toxic doses and inconclusive results are not listed.

Here are results for 27 molecules from PubChem BioAssay AID330 (DTP/NCI, 2004).

Turning to `OCC1CSC(=S)N1Cc1ccccc1` (stereo not drawn), the T/C was 97 % of control under setting [1], 100 % of control under setting [2] and 107 % of control under setting [3].

In the case of `COc1cc2c(O)c3c(c(-c4ccc5c(c4)OCO5)c2cc1OC)C(=O)OC3`, the T/C by setting is: under setting [4], 91 % of control; under setting [5], 100 % of control; under setting [6], 100 % of control; under setting [7], 117 % of control.

Consider `C/C=C(/C)C(=O)OC1CC(C)=CC(OC(=O)/C(C)=C\C)[C@]2(C)C1[C@](O)(C(C)C)C[C@H]2OC(C)=O` (stereo partly drawn), for which the T/C is 95 % of control (dose: 5.0 mg/kg/injection, schedule: Q01DX005 (ip), vehicle: Klucel + Tween-80); 97 % of control (dose: 10.0 mg/kg/injection, schedule: Q01DX005 (ip), vehicle: Klucel + Tween-80); 100 % of control (dose: 20.0 mg/kg/injection, schedule: Q01DX005 (ip), vehicle: Klucel + Tween-80); 91 % of control (dose: 40.0 mg/kg/injection, schedule: Q01DX005 (ip), vehicle: Klucel + Tween-80).

For `CC(NNC(=S)N1CC2CCC(CC2)C1)c1cc2ccccc2cn1` (stereo not drawn), the T/C runs as follows: under setting [8], 114 % of control; under setting [9], 112 % of control; under setting [10], 121 % of control.

On to `COc1cc(C)c(OC)c(C/C=C(\C)CC2=C(CC(C)(C)O)C(=O)[C@]3(C)CCC[C@]3(C)C2)c1`, for which the T/C runs as follows: (dose: 5.0 mg/kg/injection, schedule: Q01DX005 (ip), vehicle: saline with Tween-80) 105 % of control; (dose: 10.0 mg/kg/injection, schedule: Q01DX005 (ip), vehicle: saline with Tween-80) 94 % of control; (dose: 20.0 mg/kg/injection, schedule: Q01DX005 (ip), vehicle: saline with Tween-80) 94 % of control.

For `C=C(Cl)CSC(=S)N(CC)CC`, the T/C (dose: 37.5 mg/kg/injection, schedule: Q01DX009 (ip), vehicle: saline sonified) was 100 % of control; the T/C (dose: 75.0 mg/kg/injection, schedule: Q01DX009 (ip), vehicle: saline sonified) was 104 % of control; the T/C (dose: 150.0 mg/kg/injection, schedule: Q01DX009 (ip), vehicle: saline sonified) is 109 % of control.

Take `COc1ccc(OC)c(C(=O)c2ccccc2C(=O)O)c1`: the T/C is 102 % of control (dose: 25.0 mg/kg/injection, schedule: Q01DX005 (ip), vehicle: Klucel (hydroxypropylcellulose) (HPC)); 100 % of control under setting [11]; 96 % of control under setting [12].

Regarding `NC(CCCCNC(=S)S)C(=O)O.[Zn+2]` (stereo not drawn), the T/C is 107 % of control under setting [11], 107 % of control under setting [12] and 107 % of control under setting [13].

With `N#C/C(=C\c1cccs1)c1nc(-c2ccc(Cl)cc2)cs1`, the T/C under setting [14] is 91 % of control and the T/C (dose: 100.0 mg/kg/injection, schedule: Q01DX009 (ip), vehicle: saline) is 91 % of control.

On to `COc1cccc2sc(-n3c(C)nc4ccccc4c3=O)nc12`, for which the T/C was 95 % of control under setting [1], 87 % of control under setting [2] and 87 % of control under setting [3].

As for `Oc1ccccc1/C=N\Nc1ccccc1`, the T/C is, setting by setting: under setting [15], 113 % of control; under setting [16], 118 % of control; under setting [17], 100 % of control.

On to `CC1(C)COC(c2ccc(C(C)(C)C)cc2)=N1`, for which the T/C was 105 % of control (dose: 3.13 mg/kg/injection, schedule: Q01DX009 (ip), vehicle: saline with Tween-80); 105 % of control (dose: 6.25 mg/kg/injection, schedule: Q01DX009 (ip), vehicle: saline with Tween-80); 98 % of control (dose: 12.5 mg/kg/injection, schedule: Q01DX009 (ip), vehicle: saline with Tween-80).

In the case of `C/C=c1/[nH]c(=O)/c(=C\C=C\c2ccccc2)[nH]c1=O`, the T/C is, setting by setting: under setting [4], 106 % of control and 91 % of control; under setting [5], 104 % of control and 91 % of control; under setting [6], 88 % of control and 91 % of control and 95 % of control; under setting [7], 97 % of control.

Turning to `CCSc1nc(N)c(C(=O)N2CCCCC2)s1`, the T/C runs as follows: under setting [5], 99 % of control; under setting [6], 98 % of control; under setting [7], 105 % of control.

For `O=C(NCCc1ccccc1Br)c1ccccc1`, the T/C was 100 % of control under setting [11], 97 % of control under setting [12] and 93 % of control under setting [13].

In the case of `CNC(=O)OCc1c(COC(=O)NC)c(-c2ccc(C(C)(C)C)cc2)n(C)c1C`, the T/C was 150 % of control and 152 % of control (dose: 6.25 mg/kg/injection, schedule: Q01DX009 (ip), vehicle: distilled water + Tween-80); 155 % of control (dose: 12.5 mg/kg/injection, schedule: Q01DX009 (ip), vehicle: distilled water + Tween-80); 150 % of control and 158 % of control (dose: 25.0 mg/kg/injection, schedule: Q01DX009 (ip), vehicle: distilled water + Tween-80); 97 % of control (dose: 50.0 mg/kg/injection, schedule: Q01DX009 (ip), vehicle: distilled water + Tween-80).

As for `O=c1c(O)c(O)c1=O.[NH2-].[NH2-].[NH2-].[NH2-].[NH2-].[Ru+5]`, the T/C (dose: 10.56 mg/kg/injection, schedule: Q04DX002 (ip), vehicle: suspension in saline) is 121 % of control.

As for `ClC(Cl)c1nc2ccccc2[nH]1`, the T/C is, setting by setting: (dose: 6.25 mg/kg/injection, schedule: Q01DX009 (ip), vehicle: saline) 108 % of control; (dose: 12.5 mg/kg/injection, schedule: Q01DX009 (ip), vehicle: saline) 100 % of control; (dose: 25.0 mg/kg/injection, schedule: Q01DX009 (ip), vehicle: saline) 108 % of control; under setting [14], 101 % of control.

In the case of `COc1cc(OC)c(NC(=O)O/N=C(\c2ccccc2)C(O)c2ccccc2)cc1Cl` (stereo not drawn), the T/C under setting [18] was 91 % of control, the T/C under setting [19] was 91 % of control and the T/C under setting [20] was 90 % of control.

Turning to `Cc1ccc(NC(=O)CNCC(C)C)cc1Cl`, the T/C was 100 % of control under setting [11], 109 % of control under setting [12] and 100 % of control under setting [13].

For `O=C(Nc1ccc(N=Nc2ccc3cc(S(=O)(=O)O)cc(S(=O)(=O)O)c3c2)cc1)c1ccc(N=Nc2c(O)ccc3cc(S(=O)(=O)O)cc(S(=O)(=O)O)c23)cc1`, the T/C reads like this: (dose: 50.0 mg/kg/injection, schedule: Q01DX005 (ip), vehicle: saline) 104 % of control; (dose: 100.0 mg/kg/injection, schedule: Q01DX005 (ip), vehicle: saline) 99 % of control; (dose: 200.0 mg/kg/injection, schedule: Q01DX005 (ip), vehicle: saline) 98 % of control.

On to `CSC(=S)c1ccc(O)c2ccccc12`, for which the T/C under setting [18] was 114 % of control, the T/C under setting [19] was 114 % of control and the T/C under setting [20] is 105 % of control.

As to `CC(/C=N\NC(N)=O)=N/N=C(N)N`, the T/C (dose: 100.0 mg/kg/injection, schedule: Q04DX003 (ip), vehicle: saline) was 94 % of control; the T/C (dose: 200.0 mg/kg/injection, schedule: Q04DX003 (ip), vehicle: saline) is 94 % of control; the T/C (dose: 400.0 mg/kg/injection, schedule: Q04DX003 (ip), vehicle: saline) was 92 % of control.

`COc1cc(Br)c(CC(=O)c2ccc3c(c2)OCO3)cc1OC`: the T/C was 86 % of control under setting [8] and 87 % of control under setting [10].

With `c1ccc(N=C2CCCCC2)cc1`, the T/C reads like this: under setting [15], 98 % of control; under setting [16], 97 % of control; under setting [17], 106 % of control; (dose: 600.0 mg/kg/injection, schedule: Q01DX001 (ip), vehicle: other) 101 % of control.

Turning to `CSc1nc(N)n2nc(C)cc2n1`, the T/C runs as follows: (dose: 60.0 mg/kg/injection, schedule: Q01DX005 (ip), vehicle: saline with Tween-80) 100 % of control; (dose: 120.0 mg/kg/injection, schedule: Q01DX005 (ip), vehicle: saline with Tween-80) 100 % of control; (dose: 240.0 mg/kg/injection, schedule: Q01DX005 (ip), vehicle: saline with Tween-80) 95 % of control.

As to `O=C(CCN1CCCCC1)Nc1ccc(F)cc1F`, the T/C under setting [8] is 97 % of control, the T/C under setting [9] was 99 % of control and the T/C under setting [10] was 100 % of control.
